Source: PubChem BioAssay AID1259407 (Chemical Carcinogenesis Research Information System (CCRIS), 2018)
Active and inactive are the calls of the source. How the calls were made is not given here.

System: CCRIS mutagenicity, Ames/micronucleus/aberration tests
Assay: CCRIS mutagenicity studies
[1] = Test System: AMES SALMONELLA TYPHIMURIUM, Strain/Indicator: TA98, Metabolic Activation: HAMSTER, LIVER, S-9, AROCLOR 1254 (10%), Method: PREINCUBATION
[2] = Test System: AMES SALMONELLA TYPHIMURIUM, Strain/Indicator: TA98, Metabolic Activation: NONE, Method: PREINCUBATION
[3] = Test System: AMES SALMONELLA TYPHIMURIUM, Strain/Indicator: TA98, Metabolic Activation: RAT, LIVER, S-9, AROCLOR 1254 (10%), Method: PREINCUBATION
[4] = Test System: AMES SALMONELLA TYPHIMURIUM, Strain/Indicator: TA100, Metabolic Activation: HAMSTER, LIVER, S-9, AROCLOR 1254 (10%), Method: PREINCUBATION
[5] = Test System: AMES SALMONELLA TYPHIMURIUM, Strain/Indicator: TA100, Metabolic Activation: NONE, Method: PREINCUBATION
[6] = Test System: AMES SALMONELLA TYPHIMURIUM, Strain/Indicator: TA100, Metabolic Activation: RAT, LIVER, S-9, AROCLOR 1254 (10%), Method: PREINCUBATION
[7] = Test System: AMES SALMONELLA TYPHIMURIUM, Strain/Indicator: TA1535, Metabolic Activation: HAMSTER, LIVER, S-9, AROCLOR 1254 (10%), Method: PREINCUBATION
[8] = Test System: AMES SALMONELLA TYPHIMURIUM, Strain/Indicator: TA1535, Metabolic Activation: NONE, Method: PREINCUBATION
[9] = Test System: AMES SALMONELLA TYPHIMURIUM, Strain/Indicator: TA1535, Metabolic Activation: RAT, LIVER, S-9, AROCLOR 1254 (10%), Method: PREINCUBATION
[10] = Test System: AMES SALMONELLA TYPHIMURIUM, Strain/Indicator: TA1537, Metabolic Activation: HAMSTER, LIVER, S-9, AROCLOR 1254 (10%), Method: PREINCUBATION
[11] = Test System: AMES SALMONELLA TYPHIMURIUM, Strain/Indicator: TA1537, Metabolic Activation: NONE, Method: PREINCUBATION
[12] = Test System: AMES SALMONELLA TYPHIMURIUM, Strain/Indicator: TA1537, Metabolic Activation: RAT, LIVER, S-9, AROCLOR 1254 (10%), Method: PREINCUBATION
[13] = Test System: MOUSE LYMPHOMA, Strain/Indicator: L5178Y (TK+/TK-), Metabolic Activation: NONE, Method: SUSPENSION/PLATE
[14] = Test System: MOUSE LYMPHOMA, Strain/Indicator: L5178Y (TK+/TK-), Metabolic Activation: RAT, LIVER, S-9, AROCLOR 1254, Method: SUSPENSION/PLATE

| Compound | mutagenic call [1] | mutagenic call [2] | mutagenic call [3] | mutagenic call [4] | mutagenic call [5] | mutagenic call [6] | mutagenic call [7] | mutagenic call [8] | mutagenic call [9] | mutagenic call [10] | mutagenic call [11] | mutagenic call [12] | mutagenic call [13] | mutagenic call [14] | further results |
| --- | --- | --- | --- | --- | --- | --- | --- | --- | --- | --- | --- | --- | --- | --- | --- |
| C#C[C@]1(O)CC[C@H]2[C@@H]3CCc4cc(OC)ccc4[C@H]3CC[C@@]21C |  |  |  |  |  |  |  |  |  |  |  |  |  |  | mutagenic call (End Point: IN VITRO CHROMOSOMAL ABERRATIONS, Test System: HUMAN PERIPHERAL LYMPHOCYTES, Metabolic Activation: NONE): active; positive (total aberrations excluding gaps); positive at higher dose levels; mutagenic call (End Point: IN VIVO CHROMOSOMAL ABERRATIONS, Test System: BONE MARROW CELLS, Species: MOUSE, Strain/Sex: SWISS/MALE, Route: IP INJECTION (ONCE)): active; positive; mutagenic call (End Point: IN VIVO MICRONUCLEUS, Test System: BONE MARROW POLYCHROMATIC ERYTHROCYTES, Species: MOUSE, Strain/Sex: SWISS/MALE, Route: IP INJECTION (SINGLE DOSE)): active; positive; mutagenic call (Test System: AMES SALMONELLA TYPHIMURIUM, Strain/Indicator: TA97A, Metabolic Activation: NONE, Method: STANDARD PLATE): inactive; negative; mutagenic call (Test System: AMES SALMONELLA TYPHIMURIUM, Strain/Indicator: TA97A, Metabolic Activation: RAT, LIVER, S-9, PHENOBARBITONE, Method: PREINCUBATION): inactive; negative; mutagenic call (Test System: AMES SALMONELLA TYPHIMURIUM, Strain/Indicator: TA98, Metabolic Activation: NONE, Method: STANDARD PLATE): inactive; negative; mutagenic call (Test System: AMES SALMONELLA TYPHIMURIUM, Strain/Indicator: TA98, Metabolic Activation: RAT, LIVER, S-9, PHENOBARBITONE, Method: PREINCUBATION): inactive; negative; mutagenic call (Test System: AMES SALMONELLA TYPHIMURIUM, Strain/Indicator: TA100, Metabolic Activation: NONE, Method: STANDARD PLATE): inactive; negative; mutagenic call (Test System: AMES SALMONELLA TYPHIMURIUM, Strain/Indicator: TA100, Metabolic Activation: RAT, LIVER, S-9, PHENOBARBITONE, Method: PREINCUBATION): inactive; negative; mutagenic call (Test System: AMES SALMONELLA TYPHIMURIUM, Strain/Indicator: TA1535, Metabolic Activation: NONE, Method: STANDARD PLATE): inactive; negative; mutagenic call (Test System: AMES SALMONELLA TYPHIMURIUM, Strain/Indicator: TA1535, Metabolic Activation: RAT, LIVER, S-9, PHENOBARBITONE, Method: PREINCUBATION): inactive; negative; mutagenic call (Test System: HOST-MEDIATED ASSAY WITH SALMONELLA, Strain/Indicator: TA97A, Metabolic Activation: MALE SWISS MOUSE, SALMONELLA ADMINISTERED 4 HR AFTER 2ND INJECTION: SACRIFICE 2 HR LATER, Method: 2 INJECTIONS AT 12 HR INTERVAL): inactive; negative; mutagenic call (Test System: HOST-MEDIATED ASSAY WITH SALMONELLA, Strain/Indicator: TA98, Metabolic Activation: MALE SWISS MOUSE, SALMONELLA ADMINISTERED 4 HR AFTER 2ND INJECTION: SACRIFICE 2 HR LATER, Method: 2 INJECTIONS AT 12 HR INTERVAL): inactive; negative; mutagenic call (Test System: HOST-MEDIATED ASSAY WITH SALMONELLA, Strain/Indicator: TA100, Metabolic Activation: MALE SWISS MOUSE, SALMONELLA ADMINISTERED 4 HR AFTER 2ND INJECTION: SACRIFICE 2 HR LATER, Method: 2 INJECTIONS AT 12 HR INTERVAL): inactive; negative; mutagenic call (Test System: HOST-MEDIATED ASSAY WITH SALMONELLA, Strain/Indicator: TA1535, Metabolic Activation: MALE SWISS MOUSE, SALMONELLA ADMINISTERED 4 HR AFTER 2ND INJECTION: SACRIFICE 2 HR LATER, Method: 2 INJECTIONS AT 12 HR INTERVAL): inactive; negative |
| CCCCC(CC)COC(=O)C(C#N)=C(c1ccccc1)c1ccccc1 (stereo not given) | inactive; negative | inactive; negative | inactive; negative | inactive; negative | inactive; negative | inactive; negative | inactive; negative | inactive; negative | inactive; negative | inactive; negative | inactive; negative | inactive; negative | inactive; negative | inactive; negative |  |
| FC(F)(F)C(Cl)Br (stereo not given) | inactive; negative | inactive; negative | inactive; negative | inactive; negative | inactive; negative | inactive; negative | inactive; negative | inactive; negative | inactive; negative | inactive; negative | inactive; negative | inactive; negative |  |  | mutagenic call (End Point: IN VITRO CHROMOSOMAL ABERRATIONS, Test System: CHINESE HAMSTER OVARY CELLS, Metabolic Activation: NONE): inactive; negative; mutagenic call (End Point: IN VITRO CHROMOSOMAL ABERRATIONS, Test System: CHINESE HAMSTER OVARY CELLS, Metabolic Activation: RAT, LIVER, S-9, AROCLOR 1254): inactive; negative |
| C[Si](Cl)Cl |  | inactive; negative |  |  | inactive; negative |  |  | inactive; negative |  |  | inactive; negative |  | inactive; negative. reevaluation of results: negative | inactive; negative. reevaluation of results: negative | mutagenic call (Test System: AMES SALMONELLA TYPHIMURIUM, Strain/Indicator: TA98, Metabolic Activation: HAMSTER, LIVER, S-9, AROCLOR 1254, Method: PREINCUBATION): inactive; negative; mutagenic call (Test System: AMES SALMONELLA TYPHIMURIUM, Strain/Indicator: TA98, Metabolic Activation: RAT, LIVER, S-9, AROCLOR 1254, Method: PREINCUBATION): inactive; negative; mutagenic call (Test System: AMES SALMONELLA TYPHIMURIUM, Strain/Indicator: TA100, Metabolic Activation: HAMSTER, LIVER, S-9, AROCLOR 1254, Method: PREINCUBATION): inactive; negative; mutagenic call (Test System: AMES SALMONELLA TYPHIMURIUM, Strain/Indicator: TA100, Metabolic Activation: RAT, LIVER, S-9, AROCLOR 1254, Method: PREINCUBATION): inactive; negative; mutagenic call (Test System: AMES SALMONELLA TYPHIMURIUM, Strain/Indicator: TA1535, Metabolic Activation: HAMSTER, LIVER, S-9, AROCLOR 1254, Method: PREINCUBATION): inactive; negative; mutagenic call (Test System: AMES SALMONELLA TYPHIMURIUM, Strain/Indicator: TA1535, Metabolic Activation: RAT, LIVER, S-9, AROCLOR 1254, Method: PREINCUBATION): inactive; negative; mutagenic call (Test System: AMES SALMONELLA TYPHIMURIUM, Strain/Indicator: TA1537, Metabolic Activation: HAMSTER, LIVER, S-9, AROCLOR 1254, Method: PREINCUBATION): inactive; negative; mutagenic call (Test System: AMES SALMONELLA TYPHIMURIUM, Strain/Indicator: TA1537, Metabolic Activation: RAT, LIVER, S-9, AROCLOR 1254, Method: PREINCUBATION): inactive; negative; mutagenic call (Test System: AMES SALMONELLA TYPHIMURIUM, Strain/Indicator: TA1538, Metabolic Activation: HAMSTER, LIVER, S-9, AROCLOR 1254, Method: PREINCUBATION): inactive; negative; mutagenic call (Test System: AMES SALMONELLA TYPHIMURIUM, Strain/Indicator: TA1538, Metabolic Activation: NONE, Method: PREINCUBATION): inactive; negative; mutagenic call (Test System: AMES SALMONELLA TYPHIMURIUM, Strain/Indicator: TA1538, Metabolic Activation: RAT, LIVER, S-9, AROCLOR 1254, Method: PREINCUBATION): inactive; negative |
